Data as given in patent US7196105B2, “Treatment of human multiple myeloma by curcumin” (Research Development Foundation, priority 2002, dated 2007).
Entries after “also recorded” stand apart in the source; their conditions may differ.

Legend:
Format in all cases: cell-based, human
p65 subunit of NF-κB = assay: Immunocytochemistry for NF-κB p65 localization in multiple myeloma cell lines; settings: all four multiple myeloma cell lines, curcumin 50 μM, 4 hours
Method: Red stain indicates the localization of p65 and blue stain (Hoechst) indicates nucleus (magnification 200×). […] U266 cells (2×10^6 cells/ml) were treated with indicated concentrations of NEMO-control or NBD-peptide (100 μM) for the indicated times. Nuclear extracts were then checked for the presence of NF-κB DNA-binding activity by EMSA. […] Untreated or NBD-peptide-treated (100 μM; 12 h) U266 cells were cytospun, and p65 immunocytochemistry was performed as described. Red stain indicates the localization of p65 and blue stain indicates nucleus (magnification 200×). […] U266 cells (2×10^6 cells/ml) were treated with indicated concentrations of NEMO-control or NBD-peptide (100 μM) for the indicated time periods, and cell viability was monitored by the trypan blue dye exclusion method. Percent cell killing was determined as: (number of trypan blue stained cells/total cells)×100. […] Stained slides were mounted with mounting medium (Sigma Colo.) and analyzed under an epifluorescence microscope (Labophot-2, Nikon, Tokyo, Japan). […] Cells with nuclear staining of NF-κB p65 or STAT3 were counted separately. One hundred cells were counted for each specimen, and the sample was graded on the basis of a 4-point scale: −, no nuclear positive cells (0%); +, low number of nuclear positive cells (<10%); ++, moderate number of nuclear positive cells (10–50%); +++, high number of nuclear positive cells (>50%).

NF-κB = assay: Electrophoretic mobility shift assay (EMSA) for nuclear NF-κB in multiple myeloma cell lines; settings: for time of complete downregulation of NF-κB: 50 μM curcumin
Method: FIG. 1A: Dose response of NF-κB to curcumin treatment of U266 cells. […] FIG. 1B: Effect of exposure duration on curcumin-induced NF-κB suppression in U266 cells. […] FIG. 1C: Effect of exposure duration on curcumin-induced NF-κB suppression in MM.1 cells. Cells were treated as described in FIG. 1B. FIG. 1D: Effect of exposure duration on curcumin-induced NF-κB suppression in MM.1R cells. Cells were treated as described in FIG. 1B. FIG. 1E: Effect of exposure duration on curcumin-induced NF-κB suppression in RPMI 8226. Cells were treated as described in FIG. 1B. FIG. 1F: […] Nuclear extracts were prepared from U266 cells (2×10^6/ml), incubated for 30 min with different antibodies or unlabeled NF-κB oligonucleotide probe, and then assayed for NF-κB by EMSA. […] U266 cells (2×10^6 cells/ml) were treated with indicated concentrations of NEMO-control or NBD-peptide (100 μM) for the indicated times. Nuclear extracts were then checked for the presence of NF-κB DNA-binding activity by EMSA. […] Untreated or NBD-peptide-treated (100 μM; 12 h) U266 cells were cytospun, and p65 immunocytochemistry was performed as described. Red stain indicates the localization of p65 and blue stain indicates nucleus (magnification 200×). […] U266 cells (2×10^6 cells/ml) were treated with indicated concentrations of NEMO-control or NBD-peptide (100 μM) for the indicated time periods, and cell viability was monitored by the trypan blue dye exclusion method. Percent cell killing was determined as: (number of trypan blue stained cells/total cells)×100. Nuclear extracts were prepared according to Bharti et al. (2003). Briefly, 2×10^6 cells were washed with cold PBS and suspended in 0.4 ml of hypotonic lysis buffer containing protease inhibitors for 30 min. The cells were then lysed with 12.5 μl of 10% Nonidet P-40. […] The nuclear pellet was resuspended in 25-μl ice-cold nuclear extraction buffer. After 30 min of intermittent mixing, the extract was centrifuged, and supernatants containing nuclear extracts were collected. Protein content was measured by the Bradford method. […] NF-kB activation was analyzed by electrophoretic mobility gel shift assay (EMSA) as described previously (Chaturvedi et al., 1994). […] Radioactive bands from the dried gels were visualized and quantitated by Phosphorlmager (Molecular Dynamics, Sunnyvale, Calif.) using ImageQuant software.

U266 cells [1] = assay: Cell viability by MTT method; settings: U266, 24 h, different concentrations
Method: The results are shown as the mean (±s.d.) percent viability from triplicate cultures.
Briefly, cells (5000/well) were incubated in triplicate in a 96-well plate in the presence or absence of indicated test samples in a final volume of 0.1 ml for 24 h at 37° C. Thereafter, 0.025 ml of MTT solution (5 mg/ml in PBS) was added to each well. After a 2 h incubation at 37 ° C., 0.1 ml of extraction buffer (20% SDS, 50% dimethylformamide) was added. Incubation was continued for overnight at 37 ° C., and then the OD at 590 nm was measured using a 96-well multiscanner autoreader (Dynatech MR 5000), with extraction buffer as blank. Percent cell viability=(OD of the experiment samples/OD of the control)×100.

U266 cells [2] = assay: Flow cytometric cell cycle analysis (propidium iodide); settings: U266, 10 μM curcumin, 24 h
Method: U266 cells (2×10^6 cells/ml) were incubated in the absence or presence of curcumin (10 μM) for the indicated times. The cells were then washed, fixed, stained with propidium iodide, and analyzed for DNA content by flow cytometry. […] After incubation for overnight at −20° C., cells were washed with PBS prior to staining with propidium iodide (PI), and then suspended in staining buffer (PI, […]; Tween-20, 0.5%; RNase, 0.1% in PBS). The cells were analyzed using a FACS Vantage flow cytometer that uses CellQuest acquisition and analysis programs (Becton Dickinson, San Jose, Calif.).

caspase-9 = assay: Western blot for procaspase-9 (apoptosis); settings: U266, curcumin 50 μM, time course
Method: The cells were washed and total proteins were extracted by lysing the cells. Sixty microgram of extracts were resolved on 10% SDS-PAGE gel, electrotransferred to a nitrocellulose membrane, and probed with anti-procaspase-9 (FIG. 6C), anti-procaspase-7 (FIG. 6D), anti-PARP (FIG. 6E, upper panel) and anti-cleaved PARP (FIG. 6E, lower penal). […] Lysates were then spun at 14000 rpm for 10 min to remove insoluble material, resolved on 7.5% gel and probed with PARP antibodies. PARP was cleaved from the 116-kDa intact protein into 85-kDa and 40-kDa peptide products. To detect cleavage products of procaspase 7 and procaspase 9, whole cell extracts were resolved on 10% gel and probed with appropriate antibodies.

In the case of COc1cc(/C=C/C(=O)CC(=O)/C=C/c2ccc(O)c(OC)c2)ccc1O [curcumin, diferuloylmethane], the “nuclear translocation of p65” value (p65 subunit of NF-κB) is reported as “prevented the translocation of the p65 subunit of NF-κB to the nucleus”, the “time of complete downregulation of NF-κB” value (NF-κB; MM.1 cells) is reported as 4 h and the “time of complete downregulation of NF-κB” value (NF-κB; MM.1R cells) is reported as 4 h. The “time of complete downregulation of NF-κB” value (NF-κB; U266 cells) was 4 h, the “concentration sufficient to fully suppress constitutive NF-κB activation” value (NF-κB; U266 cells, 4 h, EMSA) was 50 µM and the “cell viability / mitochondrial activity (MTT)” value (U266 cells [1]) was “suppressed mitochondrial activity; also recorded: decreased cell survival in a dose-dependent manner”. The “percentage of cells in the S phase” value (U266 cells [2]; from 22% without treatment) was 9%, the “percentage of cells in the G1 phase” value (U266 cells [2]; from 52% without treatment) was 70% and the “activation of caspase-9 (disappearance of 47-kDa band)” value (caspase-9) was “time-dependent activation”.
